Reference: BindingDB's records for doi:10.1021/jm00037a025 (University of Oxford, 1994)

What follows are molecules tested against D(2) dopamine receptor (Rattus norvegicus, UniProt P61169) (assay: Displacement of spiperone from dopamine receptor D2 of rat brain membrane).
Chain of D(2) dopamine receptor (P61169 whole entry): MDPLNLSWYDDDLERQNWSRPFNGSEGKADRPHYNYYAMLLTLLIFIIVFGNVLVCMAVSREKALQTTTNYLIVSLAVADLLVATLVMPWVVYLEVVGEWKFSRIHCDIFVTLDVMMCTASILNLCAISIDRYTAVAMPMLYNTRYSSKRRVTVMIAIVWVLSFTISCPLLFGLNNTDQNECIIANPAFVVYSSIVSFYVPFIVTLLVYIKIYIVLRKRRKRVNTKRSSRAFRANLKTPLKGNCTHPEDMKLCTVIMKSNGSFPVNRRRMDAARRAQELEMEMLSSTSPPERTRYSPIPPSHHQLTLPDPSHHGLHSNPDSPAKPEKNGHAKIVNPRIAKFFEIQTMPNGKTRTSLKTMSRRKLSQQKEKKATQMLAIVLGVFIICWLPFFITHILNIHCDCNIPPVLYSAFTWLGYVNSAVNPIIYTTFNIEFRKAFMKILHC

SMILES | IC50
CCCCN1CCC[C@H](c2cccc(O)c2)C1 | 430 nM
CN1CCC[C@H](c2cccc(O)c2)C1 | 610 nM
CN1CCC[C@@H](c2cccc(O)c2)C1 | 290 nM
CCc1ccc(N2CCC[C@@H](c3cccc(O)c3)C2)cc1 | 43.7 nM
CCc1ccc(N2CCC[C@H](c3cccc(O)c3)C2)cc1 | 1230 nM
